Laboratory results published in patent publication US20230286930A1, “N -SUBSTITUTED 4-(1,3-ARYLOXAZOLO-2-YL)PHENYL COMPOUNDS FOR THE TREATMENT AND PROPHYLAXIS OF HEPATITIS B VIRUS INFECTION” (Hoffmann-La Roche Inc., priority 2020, published 2023).
pIC50: −log10 of the molar value.

What was measured:
HBeAg = assay: PHH natural infection assay, HBeAg (alphalisa); format: cell-based, HBV; conditions: Hepatitis B virus, read-out: HBeAg IC50
Method: (§1) Detailed procedures regarding primary human hepatocyte (PHH) HBV natural infection assay are described as below. One tube of frozen PHH (10 million cells) is thawed in 37° C. water bath and then transferred to 20 mL of PHH thawing medium (Sigma, InVitroGRO HT Medium, Cat. S03319) with gently mixing. The cells were then centrifuged at […] for 5 min, the supernatant was discarded and the tube was refilled with 25 mL of PHH plating medium (Sigma, InVitroGRO CP Medium, Cat. S03317). The tube was shaken very gently to re-suspend all cells, and then 50 μL of cells were transferred to each well 384-well collagen I coated plate with appropriate liquid handling equipment, e.g. Integra VIAFLO384 or Agilent Bravo. The cells were then cultured for 24 hours in a cell incubator. For HBV infection, after PHH attachment on the culture plate, the plating medium was removed and replenished with PHH culture medium containing HBV virus. The PHH culture medium was prepared with Dulbecco's Modified Eagle Medium (DMEM)/F12 (1:1 in volume ratio) containing 10% fetal bovine serum (Gibco, Cat. 10099141), 5 ng/mL human epidermal growth factor (Gibco, Cat.PHG0311L), 20 ng/mL dexamethasone (Sigma, Cat.D4902-100 mg), 250 ng/mL human recombinant insulin (Gibco, Cat.41400045) and 100 U/mL penicillin. HBV virus at 200 genome equivalent (GE) per cell with 4% PEG8000 (Sigma, Cat.P1458) containing culture medium were added to the PHH culture medium for infection. The cells were then cultured for 24 hours in cell incubator. Then the cell culture supernatant was removed. The HBV-infected PHH were cultured with sandwich culture method with PHH culture medium containing 1% DMSO and 0.25 mg/mL matrix gel for 72 hours. The supernatant was then refreshed with PHH culture medium containing different concentrations of testing compounds for two times with 72-hour interval. At the end of treatment, the supernatant was collected for viral markers measurements, including HBsAg, HBeAg, HBV DNA and cytotoxicity. HBsAg and HBeAg were detected using alphalisa method using their specific antibodies. For HBV DNA detection, HBV DNA Quantitative Fluorescence Diagnostic Kit (Sansure Biotech Inc.) was used following the manufacture's protocol. Cytotoxicity was determined using Cell Counting Kit-8 (CCK8, Dojindo Molecular Technologies, Inc.).
(§2) The compounds of the present invention were tested for their capacity to inhibit HBsAg and HBeAg as described herein.

HBsAg = assay: PHH natural infection assay, HBsAg (alphalisa); format: cell-based, HBV; conditions: Hepatitis B virus, read-out: HBsAg IC50
Method: as §1, §2

[1] = PHH natural infection assay, cytotoxicity (Cell Counting Kit-8); format: cell-based; conditions: human
Method: as §1

Row | SMILES | pIC50 (HBeAg) | pIC50 (HBsAg) | CC50 at 144 h [1] [nM]
1 | O=C(Nc1ccc(-c2nc3cccc(F)c3o2)cc1)C1COC1 [Example 29, N-[4-(7-fluoro-1,3-benzoxazol-2-yl)phenyl]oxetane-3-carboxamide] | 5.84 | 5.86 | > 100000
2 | O=C(Nc1ccc(-c2nc3cccc(F)c3o2)cc1)C1CCSCC1 [Example 30, N-[4-(7-fluoro-1,3-benzoxazol-2-yl)phenyl]tetrahydrothiopyran-4-carboxamide] | 5.83 | 5.83 | > 100000
3 | O=C(Nc1ccc(-c2nc3cccc(F)c3o2)cc1)C1CS(=O)(=O)C1 [Example 31, N-[4-(7-fluoro-1,3-benzoxazol-2-yl)phenyl]-1,1-dioxo-thietane-3-carboxamide] | 5.64 | 5.82 | > 100000
4 | CC1(C(=O)Nc2ccc(-c3nc4cccc(F)c4o3)cc2)CC1 [Example 32, N-[4-(7-fluoro-1,3-benzoxazol-2-yl)phenyl]-1-methyl-cyclopropanecarboxamide] | 5.94 | 5.82 | > 100000
5 | O=C(Nc1ccc(-c2nc3cccc(F)c3o2)cc1)C1C2COCC21 (stereo not drawn) [Example 33, N-[4-(7-fluoro-1,3-benzoxazol-2-yl)phenyl]-3-oxabicyclo[3.1.0]hexane-6-carboxamide] | 5.96 | 5.80 | > 100000
6 | CC1(C(=O)Nc2ccc(-c3nc4cccc(F)c4o3)cc2)CCC1 [Example 34, N-[4-(7-fluoro-1,3-benzoxazol-2-yl)phenyl]-1-methyl-cyclobutanecarboxamide] | 5.75 | 5.79 | > 100000
7 | CC1(C(=O)Nc2ccc(-c3nc4cccc(F)c4o3)cc2)CCCO1 (stereo not drawn) [Example 35, N-[4-(7-fluoro-1,3-benzoxazol-2-yl)phenyl]-2-methyl-tetrahydrofuran-2-carboxamide] | 5.73 | 5.78 | > 100000
8 | CC(=O)OC1(C(=O)Nc2ccc(-c3nc4cccc(F)c4o3)cc2)CC1 [Example 36, [1-[[4-(7-fluoro-1,3-benzoxazol-2-yl)phenyl]carbamoyl]cyclopropyl] acetate] | 5.58 | 5.56 | > 100000
9 | O=C(Nc1ccc(-c2nc3cccc(F)c3o2)cc1)OC1CCOC1 (stereo not drawn) [Example 37, tetrahydrofuran-3-yl N-[4-(7-fluoro-1,3-benzoxazol-2-yl)phenyl]carbamate] | 5.37 | 5.46 | > 100000
10 | COC(=O)C12CC(C(=O)Nc3ccc(-c4nc5cccc(F)c5o4)cc3)(C1)C2 [Example 38, methyl 3-[[4-(7-fluoro-1,3-benzoxazol-2-yl)phenyl]carbamoyl]bicyclo[1.1.1]pentane-1-carboxylate] | 5.40 | 5.43 | > 100000
11 | CCC1(C(=O)Nc2ccc(-c3nc4cccc(F)c4o3)cc2)COC1 [Example 39, 3-ethyl-N-[4-(7-fluoro-1,3-benzoxazol-2-yl)phenyl]oxetane-3-carboxamide] | 5.05 | 5.20 | > 100000
12 | O=C(Nc1ccc(-c2nc3c(F)cccc3o2)cc1)c1ncco1 [Example 40, N-[4-(4-fluoro-1,3-benzoxazol-2-yl)phenyl]oxazole-2-carboxamide] | 6.48 | 6.77 | > 100000
13 | Cc1cnc(C(=O)Nc2ccc(-c3nc4c(F)cccc4o3)cc2)o1 [Example 41, N-[4-(4-fluoro-1,3-benzoxazol-2-yl)phenyl]-5-methyl-oxazole-2-carboxamide] | 6.28 | 6.38 | > 100000
14 | O=C(Nc1ccc(-c2nc3c(F)cccc3o2)cc1)c1ccccn1 [Example 42, N-[4-(4-fluoro-1,3-benzoxazol-2-yl)phenyl]pyridine-2-carboxamide] | 6.28 | 6.34 | > 100000
15 | Cc1coc(C(=O)Nc2ccc(-c3nc4c(F)cccc4o3)cc2)n1 [Example 43, N-[4-(4-fluoro-1,3-benzoxazol-2-yl)phenyl]-4-methyl-oxazole-2-carboxamide] | 5.97 | 5.96 | > 100000
16 | O=C(Nc1ccc(-c2nc3c(F)cccc3o2)cc1)c1nccs1 [Example 44, N-[4-(4-fluoro-1,3-benzoxazol-2-yl)phenyl]thiazole-2-carboxamide] | 5.89 | 5.88 | > 100000

Row | SMILES | pIC50 (HBeAg) | pIC50 (HBsAg) | CC50 at 144 h [1] [nM]
17 | Cc1ncc(C(=O)Nc2ccc(-c3nc4c(F)cccc4o3)cc2)o1 [Example 45, N-[4-(4-fluoro-1,3-benzoxazol-2-yl)phenyl]-2-methyl-oxazole-5-carboxamide] | 5.87 | 5.87 | > 100000
18 | O=C(Nc1ccc(-c2nc3c(F)cccc3o2)cc1)c1cccnc1 [Example 46, N-[4-(4-fluoro-1,3-benzoxazol-2-yl)phenyl]pyridine-3-carboxamide] | 5.34 | 5.65 | > 100000
19 | O=C(Nc1ccc(-c2nc3c(F)cccc3o2)cc1)C12CC(C1)C2 [Example 47, N-[4-(4-fluoro-1,3-benzoxazol-2-yl)phenyl]bicyclo[1.1.1]pentane-1-carboxamide] | 5.92 | 5.99 | > 100000
20 | O=C(Nc1ccc(-c2nc3c(F)cccc3o2)cc1)C12CC(F)(C1)C2 [Example 48, 3-fluoro-N-[4-(4-fluoro-1,3-benzoxazol-2-yl)phenyl]bicyclo[1.1.1]pentane-1-carboxamide] | 6.01 | 6.12 | > 100000
21 | CC(C)(O)C(=O)Nc1ccc(-c2nc3c(F)cccc3o2)cc1 [Example 49, N-[4-(4-fluoro-1,3-benzoxazol-2-yl)phenyl]-2-hydroxy-2-methyl-propanamide] | 6.28 | 6.21 | > 100000
22 | O=C(Nc1ccc(-c2nc3c(F)cccc3o2)cc1)C1CCS(=O)(=O)C1 (stereo not drawn) [Example 50, N-[4-(4-fluoro-1,3-benzoxazol-2-yl)phenyl]-1,1-dioxo-thiolane-3-carboxamide] | 5.82 | 5.92 | > 100000
23 | CC1(C(=O)Nc2ccc(-c3nc4c(F)cccc4o3)cc2)COC1 [Example 51, N-[4-(4-fluoro-1,3-benzoxazol-2-yl)phenyl]-3-methyl-oxetane-3-carboxamide] | 5.91 | 5.94 | > 100000
24 | CC(O)C(=O)Nc1ccc(-c2nc3c(F)cccc3o2)cc1 (stereo not drawn) [Example 52, N-[4-(4-fluoro-1,3-benzoxazol-2-yl)phenyl]-2-hydroxy-propanamide] | 5.75 | 5.76 | > 100000
25 | CC(C)(C)C(=O)Nc1ccc(-c2nc3c(F)cccc3o2)cc1 [Example 53, N-[4-(4-fluoro-1,3-benzoxazol-2-yl)phenyl]-2,2-dimethyl-propanamide] | 5.93 | 5.84 | > 100000
26 | O=C(Nc1ccc(-c2nc3c(F)cccc3o2)cc1)C1CCOC1 (stereo not drawn) [Example 54, N-[4-(4-fluoro-1,3-benzoxazol-2-yl)phenyl]tetrahydrofuran-3-carboxamide] | 5.55 | 5.57 | > 100000
27 | O=C(Nc1ccc(-c2nc3c(F)cccc3o2)cc1)C1CCS(=O)(=O)CC1 [Example 55, N-[4-(4-fluoro-1,3-benzoxazol-2-yl)phenyl]-1,1-dioxo-thiane-4-carboxamide] | 5.55 | 5.53 | > 100000
28 | CC1(C(=O)Nc2ccc(-c3nc4c(F)cccc4o3)cc2)CC(=O)C1 [Example 56, N-[4-(4-fluoro-1,3-benzoxazol-2-yl)phenyl]-1-methyl-3-oxo-cyclobutanecarboxamide] | 5.37 | 5.47 | > 100000
29 | O=C(Nc1ccc(-c2nc3c(F)cccc3o2)cc1)C1CS(=O)(=O)C1 [Example 57, N-[4-(4-fluoro-1,3-benzoxazol-2-yl)phenyl]-1,1-dioxo-thietane-3-carboxamide] | 5.04 | 5.09 | > 100000
30 | COC(=O)Nc1ccc(-c2nc3c(F)cccc3o2)cc1 [Example 58, methyl N-[4-(4-fluoro-1,3-benzoxazol-2-yl)phenyl]carbamate] | 5.06 | 5.22 | > 100000
31 | CCOC(=O)Nc1ccc(-c2nc3c(F)cccc3o2)cc1 [Example 59, ethyl N-[4-(4-fluoro-1,3-benzoxazol-2-yl)phenyl]carbamate] | 5.80 | 5.79 | > 100000
